This note sets out measurements from patent publication US4806540A, “1-heteroaryl-4-aryl-pyrazole microbicides” (Bayer Aktiengesellschaft, priority 1985, dated 1989).

≈ marks a conversion by molar mass, not a printed value.

One assay relates to Pyricularia oryzae. In kind it is in vivo, Pyricularia oryzae (on young rice plants). The conditions noted are these: protective, rice plants; evaluation 4 days after inoculation.
Assay [1] concerns fungi: Alternaria tenuis, Aspergillus niger, Aureobasidium pullulans, Chaetomium globosum, Cladosporium cladoporioides, Lentinus tigrinus, Penicillium glaucum …. Briefly: Minimum inhibitory concentrations (MIC), activity against fungi (agar). The class given is cell-based. As to conditions: agar from beer wort and peptone; 28° C., 60 to 70% humidity, 2 weeks; 0.1 mg/l to 5,000 mg/l. How it is done: Active compounds according to the invention are added in concentrations of 0.1 mg/l to 5,000 mg/l to an agar prepared from beer wort and peptone. After storage at 28° C. and 60 to 70% relative atmospheric humidity for 2 weeks, the MIC is determined. […] Good actions of the listed test organisms are shown, for example, by the compounds according to Preparation Examples 2, 6a, 12a, 9b, 24 and 25: […]

In another assay the test system is Escherichia coli. Description: Action against bacteria, MIC (agar). In kind it is cell-based. As to conditions: 336 h, agar containing broth, 28° C., 2 weeks. As for the experimental part: (§1) The nutrient medium is then infected with in each case the test organisms listed in Table C and the infected medium is kept at 28° C. and 60 to 70% relative atmospheric humidity for 2 weeks. […] The compounds according to Preparation Examples 2, 6a, 12a, 9b, 13 and 14 show good actions.

For the next assay, the system named is Staphylococcus aureus. Briefly: Action against bacteria, MIC (agar). In kind it is cell-based. The conditions noted are these: 336 h, agar containing broth, 28° C., 2 weeks. As for the experimental part:
as §1

The next assay relates to bacteria. Description: Action against bacteria (test organisms of Table C), result in words. In kind it is cell-based, Escherichia coli, Staphylococcus aureus. The conditions noted are these: 1 to 5,000 ppm; agar containing broth, 28° C., 2 weeks. As for the experimental part:
as §1

Regarding `CC(=O)n1cc(-c2ccccc2)c(=O)n1-c1ncccn1` [Example 2, 1-Pyrimid-2-yl-2-acetyl-4-phenyl-pyrazol-5-one], the “activity compared with the prior art” value in the assay on Pyricularia oryzae was “clearly superior activity compared with the prior art”. In addition, the “action against the listed test organisms (fungi)” value in assay [1] is listed as “Good actions”. For the same compound, the values for the MIC with Escherichia coli and with Staphylococcus aureus were 750 µg/mL (≈ 2680 µM) and 1000 µg/mL (≈ 3570 µM), respectively. Further, in the assay on bacteria, the action against bacteria entry was “good actions”.
With `CS(=O)(=O)n1cc(-c2ccccc2)c(=O)n1-c1ccccn1` [Example 24, 1-pyrid-2-yl-2-methylsulphonyl-4-phenyl-pyrazolin-5-one], the MIC in the assay on Escherichia coli and against Staphylococcus aureus was 50 µg/mL (≈ 159 µM) each time.
For `O=c1c(-c2ccccc2)cn(S(=O)(=O)c2ccccc2)n1-c1ccccn1` [Example 25], the “action against the listed test organisms (fungi)” value in assay [1] is “Good actions”. The results for the minimum inhibitory concentration (MIC) against Escherichia coli and against Staphylococcus aureus were 1000 µg/mL (≈ 2650 µM) and 20 µg/mL (≈ 53 µM), respectively.
As to “mixture of 1-pyrid-2-yl-2-acetyl-4-phenyl-pyrazolin-5-one and 1-pyrid-2-yl-4-phenyl-5-acetoxypyrazole [Example 1]”, the “activity compared with the prior art” value with Pyricularia oryzae was “clearly superior activity compared with the prior art”.

One may read the MIC as the lowest concentration that inhibits growth of the organism. The low end stands for inhibition by little substance, the high end for a need for much substance.
